Laboratory results reported in ChEMBL document CHEMBL3044911, “Effect of distribution and concentration of topically applied neonicotinoid insecticides in buffalograss, Buchloe dactyloides, leaf tissues on the differential mortality of Blissus occiduus under field conditions” (Pest Manag Sci, 2013).
Active and inactive are the calls of the source. The calls are words filed in the database; no cut-off is given here.

Assays:
[1] = system: Lygaeidae; experiment: Insecticidal activity against first generation Blissus occiduus in buffalograss under field condition assessed as reduction in number at 9.6 kg/ha measured 3 days after treatment; type: functional, organism-based
[2] = system: Lygaeidae; experiment: Insecticidal activity against second generation Blissus occiduus in buffalograss under field condition assessed as reduction in number at 9.6 kg/ha measured 3 days after treatment; type: functional, organism-based
[3] = system: Lygaeidae; experiment: Insecticidal activity against first generation Blissus occiduus in buffalograss under field condition assessed as reduction in number at 9.6 kg/ha measured 106 days after treatment; type: functional, organism-based
[4] = system: Lygaeidae; experiment: Insecticidal activity against second generation Blissus occiduus in buffalograss under field condition assessed as reduction in number at 9.6 kg/ha measured 55 days after treatment; type: functional, organism-based
[5] = system: Lygaeidae; experiment: Insecticidal activity against second generation Blissus occiduus in buffalograss under field condition assessed as reduction in number at 9.6 kg/ha measured 28 days after treatment; type: functional, organism-based
[6] = system: Lygaeidae; experiment: Insecticidal activity against first generation Blissus occiduus in buffalograss under field condition assessed as reduction in number at 9.6 kg/ha measured 8 days after treatment; type: functional, organism-based
[7] = system: Lygaeidae; experiment: Insecticidal activity against second generation Blissus occiduus in buffalograss under field condition assessed as reduction in number at 9.6 kg/ha measured 7 days after treatment; type: functional, organism-based
[8] = system: Urochloa mutica; experiment: Drug level in […] (buffalo grass) measured per gram of fresh weight at 19.1 kg/ha measured 28 days after treatment; type: ADME, organism-based; settings: in vivo, 672 h
[9] = system: Urochloa mutica; experiment: Drug level in […] (buffalo grass) measured per gram of fresh weight at 19.1 kg/ha measured 14 days after treatment; type: ADME, organism-based; settings: in vivo, 336 h
[10] = system: Lygaeidae; experiment: Insecticidal activity against first generation Blissus occiduus in buffalograss under field condition assessed as reduction in number at 89.7 kg/ha measured 8 days after treatment; type: functional, organism-based
[11] = system: Lygaeidae; experiment: Insecticidal activity against first generation Blissus occiduus in buffalograss under field condition assessed as reduction in number at 89.7 kg/ha measured 3 days after treatment; type: functional, organism-based
[12] = system: Lygaeidae; experiment: Insecticidal activity against second generation Blissus occiduus in buffalograss under field condition assessed as reduction in number at 89.7 kg/ha measured 7 days after treatment; type: functional, organism-based
[13] = system: Lygaeidae; experiment: Insecticidal activity against second generation Blissus occiduus in buffalograss under field condition assessed as reduction in number at 89.7 kg/ha measured 3 days after treatment; type: functional, organism-based
[14] = system: Urochloa mutica; experiment: Drug level in […] (buffalo grass) measured per gram of fresh weight at 19.1 kg/ha measured 7 days after treatment; type: ADME, organism-based; settings: in vivo, 168 h
[15] = system: Urochloa mutica; experiment: Drug level in […] (buffalo grass) measured per gram of fresh weight at 19.1 kg/ha measured 3 days after treatment; type: ADME, organism-based; settings: in vivo, 72 h
[16] = system: Lygaeidae; experiment: Insecticidal activity against second generation Blissus occiduus in buffalograss under field condition assessed as reduction in number at 89.7 kg/ha measured 55 days after treatment; type: functional, organism-based
[17] = system: Lygaeidae; experiment: Insecticidal activity against first generation Blissus occiduus in buffalograss under field condition assessed as reduction in number at 89.7 kg/ha measured 106 days after treatment; type: functional, organism-based
[18] = system: Lygaeidae; experiment: Insecticidal activity against second generation Blissus occiduus in buffalograss under field condition assessed as reduction in number at 89.7 kg/ha measured 28 days after treatment; type: functional, organism-based
[19] = system: Urochloa mutica; experiment: Drug level in […] (buffalo grass) measured per gram of fresh weight at 89.7 kg/ha measured 28 days after treatment; type: ADME, organism-based; settings: in vivo, 672 h
[20] = system: Urochloa mutica; experiment: Drug level in […] (buffalo grass) measured per gram of fresh weight at 89.7 kg/ha measured 14 days after treatment; type: ADME, organism-based; settings: in vivo, 336 h
[21] = system: Urochloa mutica; experiment: Drug level in […] (buffalo grass) measured per gram of fresh weight at 89.7 kg/ha measured 7 days after treatment; type: ADME, organism-based; settings: in vivo, 168 h
[22] = system: Urochloa mutica; experiment: Drug level in […] (buffalo grass) measured per gram of fresh weight at 89.7 kg/ha measured 3 days after treatment; type: ADME, organism-based; settings: in vivo, 72 h
[23] = system: Urochloa mutica; experiment: Drug level in […] (buffalo grass) measured per gram of fresh weight at 9.6 kg/ha measured 14 days after treatment; type: ADME, organism-based; settings: in vivo, 336 h
[24] = system: Lygaeidae; experiment: Insecticidal activity against first generation Blissus occiduus in buffalograss under field condition assessed as reduction in number at 19.1 kg/ha measured 8 days after treatment; type: functional, organism-based
[25] = system: Lygaeidae; experiment: Insecticidal activity against first generation Blissus occiduus in buffalograss under field condition assessed as reduction in number at 19.1 kg/ha measured 3 days after treatment; type: functional, organism-based
[26] = system: Lygaeidae; experiment: Insecticidal activity against second generation Blissus occiduus in buffalograss under field condition assessed as reduction in number at 19.1 kg/ha measured 7 days after treatment; type: functional, organism-based
[27] = system: Lygaeidae; experiment: Insecticidal activity against second generation Blissus occiduus in buffalograss under field condition assessed as reduction in number at 19.1 kg/ha measured 3 days after treatment; type: functional, organism-based
[28] = system: Lygaeidae; experiment: Insecticidal activity against first generation Blissus occiduus in buffalograss under field condition assessed as reduction in number at 19.1 kg/ha measured 106 days after treatment; type: functional, organism-based
[29] = system: Urochloa mutica; experiment: Drug level in […] (buffalo grass) measured per gram of fresh weight at 9.6 kg/ha measured 7 days after treatment; type: ADME, organism-based; settings: in vivo, other, 168 h
[30] = system: Urochloa mutica; experiment: Drug level in […] (buffalo grass) measured per gram of fresh weight at 9.6 kg/ha measured 3 days after treatment; type: ADME, organism-based; settings: in vivo, 72 h
[31] = system: Lygaeidae; experiment: Insecticidal activity against second generation Blissus occiduus in buffalograss under field condition assessed as reduction in number at 19.1 kg/ha measured 55 days after treatment; type: functional, organism-based
[32] = system: Lygaeidae; experiment: Insecticidal activity against second generation Blissus occiduus in buffalograss under field condition assessed as reduction in number at 19.1 kg/ha measured 28 days after treatment; type: functional, organism-based

O=[N+]([O-])/N=C1\NCCN1Cc1ccc(Cl)nc1
Activity [1]: Active | Activity [2]: inactive | Activity [3]: inactive | Activity [4]: Active | Activity [5]: inactive | Activity [6]: Active | Activity [7]: Active

CN/C(=N\[N+](=O)[O-])NCc1cnc(Cl)s1 [CLOTHIANIDINE]
drug content [8]: 0.19 µg/g | drug content [9]: 0.66 µg/g | Activity [10]: Active | Activity [11]: Active | Activity [12]: Active | Activity [13]: Active | Drug uptake [14]: 1.56 µg/g | drug content [15]: 6.48 µg/g | Activity [16]: Active | Activity [17]: Active | Activity [18]: Active

O=[N+]([O-])NC1=NCCN1Cc1ccc(Cl)nc1 [IMIDACLOPRID]
drug content [19]: 0.2 µg/g | drug content [20]: 0.77 µg/g | drug content [21]: 3.25 µg/g | drug content [22]: 14.2 µg/g

CN1COCN(Cc2cnc(Cl)s2)/C1=N\[N+](=O)[O-] [THIAMETHOXAM]
drug content [23]: 0.16 µg/g | Activity [24]: Active | Activity [25]: Active | Activity [26]: Active | Activity [27]: inactive | Activity [28]: inactive | drug content [29]: 0.6 µg/g | drug content [30]: 6.2 µg/g | Activity [31]: Active | Activity [32]: Active
